Measurements: US10098880B2 (CELLWORKS GROUP INC., priority 2014, dated 2018)

Experiments:
[1] = cited from earlier work
[2] = target: T1, HMG-CoA reductase (Homo sapiens, UniProt P04035); settings: in vitro; cited from earlier work
T1 sequence (P04035 1-888): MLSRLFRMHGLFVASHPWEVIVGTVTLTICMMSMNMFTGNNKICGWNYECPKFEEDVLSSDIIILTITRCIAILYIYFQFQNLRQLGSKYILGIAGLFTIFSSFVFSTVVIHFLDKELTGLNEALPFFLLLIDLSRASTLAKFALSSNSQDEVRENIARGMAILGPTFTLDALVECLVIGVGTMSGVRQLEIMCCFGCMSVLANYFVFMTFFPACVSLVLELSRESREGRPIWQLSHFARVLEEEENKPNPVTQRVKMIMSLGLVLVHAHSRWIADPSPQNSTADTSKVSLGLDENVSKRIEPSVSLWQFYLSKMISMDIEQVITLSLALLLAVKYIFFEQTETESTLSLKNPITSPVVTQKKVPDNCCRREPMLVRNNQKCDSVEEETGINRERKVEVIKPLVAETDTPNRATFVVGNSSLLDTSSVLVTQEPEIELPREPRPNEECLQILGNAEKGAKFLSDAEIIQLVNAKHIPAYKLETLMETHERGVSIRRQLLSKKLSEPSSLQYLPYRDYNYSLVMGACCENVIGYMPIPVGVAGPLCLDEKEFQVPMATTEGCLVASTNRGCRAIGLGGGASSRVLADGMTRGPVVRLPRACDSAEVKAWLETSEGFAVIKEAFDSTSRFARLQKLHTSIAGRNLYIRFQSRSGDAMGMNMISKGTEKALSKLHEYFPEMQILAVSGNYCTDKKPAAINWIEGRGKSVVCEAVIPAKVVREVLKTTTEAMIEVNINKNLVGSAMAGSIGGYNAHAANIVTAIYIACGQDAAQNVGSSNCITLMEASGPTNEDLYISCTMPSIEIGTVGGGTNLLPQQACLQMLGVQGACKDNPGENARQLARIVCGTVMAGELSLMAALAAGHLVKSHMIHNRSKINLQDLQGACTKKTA

[3] = test system: U251 cell line (PTEN, TP53 and CDKN2A mutated); test: In-vitro relative growth assay (CellTiter 96 Aqueous One), U251 cell line; type: cell-based, human; settings: FIG. 4A: Nelfinavir 5 μM, Metformin 0.5 mM, Rosuvastatin 12.5 μM, individually or combined, about 71 hours
Protocol: (§1) U251 cell line is procured from Sigma-Aldrich (Catalog number: 09063001). The U87 human cell line is procured from ATCC (American Type Culture Collection, Manassas, Va., ATCC® HTB-14TM). LN229 cell line is procured from ATCC (American Type Culture Collection, Manassas, Va., […]). […] 100 μl/well of the diluted sample is added to assay plate containing resuspended cells. […] The assay plate is incubated for about 71 hours followed by addition of about 20 μl of Promega Substrate CellTiter 96 Aqueous One Solution Reagent to each well. It is incubated at 37° C. The absorbance of the sample is read at about 490 nm.

[4] = test system: U87 cell line (PTEN and CDKN2A mutated); test: In-vitro relative growth assay (CellTiter 96 Aqueous One), U87 cell line; type: cell-based, human; settings: FIG. 4A: Nelfinavir 5 μM, Metformin 0.5 mM, Rosuvastatin 12.5 μM, individually or combined, about 71 hours
Protocol: [table] U251 cell line is procured from Sigma-Aldrich (Catalog number: 09063001). The U87 human cell line is procured from ATCC (American Type Culture Collection, Manassas, Va., ATCC® HTB-14TM). LN229 cell line is procured from ATCC (American Type Culture Collection, Manassas, Va., […]). […] DMSO, Digitoxin and drugs (Nelfinavir, Metformin and Rosuvastatin individually and in combination) are serial diluted in an assay media. 100 μl/well of the diluted sample is added to assay plate containing resuspended cells. […] The assay plate is incubated for about 71 hours followed by addition of about 20 μl of Promega Substrate CellTiter 96 Aqueous One Solution Reagent to each well. It is incubated at 37° C. The absorbance of the sample is read at about 490 nm.

[5] = target: AKT (Homo sapiens, UniProt P31749); settings: reported, PMID 23454896; inhibition of AKT phosphorylation at Ser473; cited from earlier work
Chain of AKT (P31749 whole entry): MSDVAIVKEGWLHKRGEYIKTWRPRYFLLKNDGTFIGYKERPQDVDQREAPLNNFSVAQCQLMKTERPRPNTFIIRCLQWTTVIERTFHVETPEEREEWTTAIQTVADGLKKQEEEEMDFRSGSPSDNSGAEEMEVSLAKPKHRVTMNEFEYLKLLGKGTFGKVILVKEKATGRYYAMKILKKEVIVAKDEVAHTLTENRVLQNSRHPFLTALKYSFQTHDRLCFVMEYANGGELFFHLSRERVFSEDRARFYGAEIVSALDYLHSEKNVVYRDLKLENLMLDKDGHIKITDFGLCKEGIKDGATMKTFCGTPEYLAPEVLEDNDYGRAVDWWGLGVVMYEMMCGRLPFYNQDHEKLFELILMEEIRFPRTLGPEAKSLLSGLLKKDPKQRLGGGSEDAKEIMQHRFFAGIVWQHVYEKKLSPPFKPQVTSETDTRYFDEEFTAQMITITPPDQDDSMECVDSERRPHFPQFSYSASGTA

[6] = test system: LN229 cell line (TP53 and CDKN2A mutated); test: In-vitro relative growth assay (CellTiter 96 Aqueous One), LN229 cell line; type: cell-based, human; settings: FIG. 4A: Nelfinavir 5 μM, Metformin 0.5 mM, Rosuvastatin 12.5 μM, individually or combined, about 71 hours
Protocol: as §1

[7] = cited from earlier work; remark: listed apart in the source
[8] = cited from earlier work; remark: listed apart in the source
[9] = oral 750 mg dose containing 14C-nelfinavir

SMILES: CN(C)C(=N)N=C(N)N [Metformin, 1-carbamimidamido-N,N-dimethyl-methanimidamide]
- time of peak action ([1]; after oral administration): 3 h
- Duration of action ([1]; in vivo): 8 to 12 h
- time over which absorbed ([1]; in vivo): 6 h
- drug eliminated in 24 hours ([1]; those with healthy renal function): Approximately 90%

SMILES: CC(C)c1nc(NS(C)(=O)=O)nc(-c2ccc(F)cc2)c1/C=C/[C@@H](O)C[C@@H](O)CC(=O)O [N-desmethylrosuvastatin]
- pharmacological activity relative to parent compound [2]: approximately 50%

SMILES: Cc1c(O)cccc1C(=O)N[C@@H](CSc1ccccc1)[C@H](O)CN1C[C@H]2CCCC[C@H]2C[C@H]1C(=O)NC(C)(C)C [Nelfinavir, (3S,4aS,8aS)-N-tert-butyl-2-[(2R,3R)-2-hydroxy-3-[(3-hydroxy-2-methylbenzoyl)amino]-4-phenylsulfanylbutyl]-3,4,4a,5,6,7,8,8a-octahydro-1H-isoquinoline-3-carboxamide]
- reduction in relative growth [3]: do not show much efficacy
- reduction in relative growth [4]: do not show much efficacy
- concentration causing AKT inhibition [5]: 20 µM
- reduction in relative growth [6]: do not show much efficacy
- predominant enzymes that metabolize nelfinavir ([7]; in humans, hepatic CYP450): CYP3A and CYP2C19
- Half-life (terminal half-life in plasma) ([7]; in vivo): 3.5 to 5 h
- dose recovered in the feces [7, 9]: 87%
- dose recovered in urine [7, 9]: 1-2%
- fecal radioactivity as oxidative metabolites [7, 9]: 78%
- fecal radioactivity as unchanged nelfinavir [7, 9]: 22%
- Absorption ([7]; oral administration): Well absorbed

SMILES: CC(C)c1nc(N(C)S(C)(=O)=O)nc(-c2ccc(F)cc2)c1/C=C/[C@@H](O)C[C@@H](O)CC(=O)O [Rosuvastatin, (E,3R,5S)-7-[4-(4-fluorophenyl)-2-[methyl(methylsulfonyl)amino]-6-propan-2-ylpyrimidin-5-yl]-3,5-dihydroxyhept-6-enoic acid]
- total body clearance by the hepatic route ([8]; after an intravenous dose): 72%
- total body clearance via the renal route ([8]; after an intravenous dose): approximately 28%
- excreted in the feces (rosuvastatin and its metabolites) ([8]; following oral administration): 90%
- Bioavailability ([8]; in vivo): approximately 20%
- Half-life ([8]; in vivo): 19 h
- excreted as metabolite ([8]; in vivo): ~10%
- increase of AUC by inhibitors of CYP2C9 ([8]; in vivo): less than 2 fold
- radiolabeled dose recovered as metabolite ([8]; in vivo): approximately 10%
- share of the pharmacologic action accounted for by parent ([8]; in vivo): greater than 90%
- reduction in relative growth [3]: do not show much efficacy
- reduction in relative growth [4]: do not show much efficacy
- reduction in relative growth [6]: do not show much efficacy
